Structures can show the parent of a compound that is named as a salt. Where two headings read alike, the source gives them in different places.
What was measured:
Assay in all cases: AK assay 384-well format, Prestwick library screening
E. cloacae = format: cell-based, Enterobacter cloacae; details: Enterobacter cloacae, 3 h, 50 μM final drug concentration
E. faecium = format: cell-based, Enterococcus faecium; details: Enterococcus faecium, 3 h, 50 μM final drug concentration
K. pneumoniae = format: cell-based, Klebsiella pneumoniae; details: Klebsiella pneumoniae, 3 h, 50 μM final drug concentration
[1] = tested on: A. baumannii strain 98-37-09; format: cell-based, Acinetobacter baumannii; details: Acinetobacter baumannii, 983709, 3 h, 50 μM final drug concentration
[2] = tested on: S. aureus strain USA300-0114; format: cell-based, Staphylococcus aureus; details: Staphylococcus aureus, USA300, 3 h, 50 μM final drug concentration
E. coli = format: cell-based, Escherichia coli; details: Escherichia coli, 3 h, 50 μM final drug concentration
P. aeruginosa = format: cell-based, Pseudomonas aeruginosa; details: Pseudomonas aeruginosa, 3 h, 50 μM final drug concentration
[3] = 384-well format, cutoff for positive-scoring molecules 3-fold increase, read-out: AK-based Prestwick Library Screening Results, E. cloacae (increase in extracellular AK activity)
[4] = 384-well format, cutoff for positive-scoring molecules 3-fold increase, read-out: AK-based Prestwick Library Screening Results, E. faecium (increase in extracellular AK activity)
[5] = 384-well format, cutoff for positive-scoring molecules 3-fold increase, read-out: AK-based Prestwick Library Screening Results, K. pneumoniae (increase in extracellular AK activity)
[6] = 384-well format, cutoff for positive-scoring molecules 3-fold increase, read-out: AK-based Prestwick Library Screening Results, A. baumannii (increase in extracellular AK activity)
[7] = 384-well format, cutoff for positive-scoring molecules 3-fold increase, read-out: AK-based Prestwick Library Screening Results, S. aureus (increase in extracellular AK activity)
[8] = 384-well format, cutoff for positive-scoring molecules 3-fold increase, read-out: AK-based Prestwick Library Screening Results, E. coli (increase in extracellular AK activity)
[9] = 384-well format, cutoff for positive-scoring molecules 3-fold increase, read-out: AK-based Prestwick Library Screening Results, P. aeruginosa (increase in extracellular AK activity)
[10] = planktonic, cutoff for positive 3-fold increase, read-out: AK-based Prestwick Library Screening Results, E. cloacae (fold increase in extracellular AK activity)
[11] = planktonic, cutoff for positive 3-fold increase, read-out: AK-based Prestwick Library Screening Results, E. faecium (fold increase in extracellular AK activity)
[12] = planktonic, cutoff for positive 3-fold increase, read-out: AK-based Prestwick Library Screening Results, K. pneumoniae (fold increase in extracellular AK activity)
[13] = planktonic, cutoff for positive 3-fold increase, read-out: AK-based Prestwick Library Screening Results, A. baumannii (fold increase in extracellular AK activity)
[14] = planktonic, cutoff for positive 3-fold increase, read-out: AK-based Prestwick Library Screening Results, S. aureus (fold increase in extracellular AK activity)
[15] = planktonic, cutoff for positive 3-fold increase, read-out: AK-based Prestwick Library Screening Results, E. coli (fold increase in extracellular AK activity)
[16] = planktonic, cutoff for positive 3-fold increase, read-out: AK-based Prestwick Library Screening Results, P. aeruginosa (fold increase in extracellular AK activity)

**Q.** For `OC[C@H]1O[C@@H](Oc2ccc(O)cc2)[C@H](O)[C@@H](O)[C@@H]1O` [Arbutin], which fold induction at 50 µM (E. cloacae; planktonic E. cloacae, positive cutoff 3-fold increase, read-out: AK-based Prestwick library screening result, E. cloacae (fold increase in extracellular AK activity)) is on record?
**A.** 1.4

**Q.** What about the fold induction at 50 µM (E. faecium; planktonic E. faecium, positive cutoff 3-fold increase, read-out: AK-based Prestwick library screening result, E. faecium (fold increase in extracellular AK activity)) of the same compound?
**A.** 0.9

**Q.** And the fold induction at 50 µM (K. pneumoniae; planktonic K. pneumoniae, positive cutoff 3-fold increase, read-out: AK-based Prestwick library screening result, K. pneumoniae (fold increase in extracellular AK activity))?
**A.** 1.2

**Q.** What about the fold induction at 50 µM ([1]; planktonic A. baumannii, positive cutoff 3-fold increase, read-out: AK-based Prestwick library screening result, A. baumannii (fold increase in extracellular AK activity)) of the same compound?
**A.** 1.5

**Q.** What about the fold induction at 50 µM ([2]; planktonic S. aureus, positive cutoff 3-fold increase, read-out: AK-based Prestwick library screening result, S. aureus (fold increase in extracellular AK activity)) of the same compound?
**A.** 1.1

**Q.** And the fold induction at 50 µM (E. coli; planktonic E. coli, positive cutoff 3-fold increase, read-out: AK-based Prestwick library screening result, E. coli (fold increase in extracellular AK activity))?
**A.** 1.2

**Q.** What about the fold induction at 50 µM (P. aeruginosa; planktonic P. aeruginosa, positive cutoff 3-fold increase, read-out: AK-based Prestwick library screening result, P. aeruginosa (fold increase in extracellular AK activity)) of the same compound?
**A.** 1.1

**Q.** Which fold induction at 50 µM (E. cloacae; [3]) does the source give for `CN(C)C(=N)N=C(N)N` [Metformin hydrochloride] here?
**A.** 0.3

**Q.** And the fold induction at 50 µM (E. faecium; [4])?
**A.** 0.8

**Q.** And the fold induction at 50 µM (K. pneumoniae; [5])?
**A.** 0.4

**Q.** And the fold induction at 50 µM [1, 6]?
**A.** 0.4

**Q.** What about the fold induction at 50 µM [2, 7] of the same compound?
**A.** 0.4

**Q.** And the fold induction at 50 µM (E. coli; [8])?
**A.** 0.5

**Q.** What about the fold induction at 50 µM (P. aeruginosa; [9]) of the same compound?
**A.** 0.3

**Q.** `O=C(O)COC(=O)Cc1ccccc1Nc1c(Cl)cccc1Cl` [Aceclofenac] was tested. Which fold induction at 50 µM (E. cloacae; [3]) did it give?
**A.** 0.8

**Q.** What about the fold induction at 50 µM (E. faecium; [4]) of the same compound?
**A.** 1

**Q.** And the fold induction at 50 µM (K. pneumoniae; [5])?
**A.** 0.6

**Q.** And the fold induction at 50 µM [1, 6]?
**A.** 0.7

**Q.** And the fold induction at 50 µM [2, 7]?
**A.** 0.7

**Q.** What about the fold induction at 50 µM (E. coli; [8]) of the same compound?
**A.** 0.7

**Q.** And the fold induction at 50 µM (P. aeruginosa; [9])?
**A.** 0.8

**Q.** How did the fold induction at 50 µM (E. cloacae; [10]) turn out when `COc1ccc(OC)c(C(O)C(C)N)c1` (stereo not drawn) [Methoxamine hydrochloride] was run?
**A.** 1.4

**Q.** And the fold induction at 50 µM (E. faecium; [11])?
**A.** 1

**Q.** What about the fold induction at 50 µM (K. pneumoniae; [12]) of the same compound?
**A.** 1

**Q.** And the fold induction at 50 µM [1, 13]?
**A.** 1

**Q.** And the fold induction at 50 µM [2, 14]?
**A.** 0.9

**Q.** And the fold induction at 50 µM (E. coli; [15])?
**A.** 1.1

**Q.** And the fold induction at 50 µM (P. aeruginosa; [16])?
**A.** 1.2

**Q.** How did the fold induction at 50 µM (E. cloacae; planktonic E. cloacae, 384-well, cutoff for positive-scoring molecules 3-fold increase, read-out: AK-based Prestwick Library Screening Results: E. cloacae (increase in extracellular AK activity)) turn out when `CN(C)c1ccc(O)c2c1C[C@H]1C[C@H]3[C@H](N(C)C)C(O)=C(C(N)=O)C(=O)[C@@]3(O)C(O)=C1C2=O` [Minocycline hydrochloride] was run?
**A.** 0.9

**Q.** And the fold induction at 50 µM (E. faecium; planktonic E. faecium, 384-well, cutoff for positive-scoring molecules 3-fold increase, read-out: AK-based Prestwick Library Screening Results: E. faecium (increase in extracellular AK activity))?
**A.** 1.1

**Q.** And the fold induction at 50 µM (K. pneumoniae; planktonic K. pneumoniae, 384-well, cutoff for positive-scoring molecules 3-fold increase, read-out: AK-based Prestwick Library Screening Results: K. pneumoniae (increase in extracellular AK activity))?
**A.** 0.6

**Q.** What about the fold induction at 50 µM ([1]; planktonic A. baumannii, 384-well, cutoff for positive-scoring molecules 3-fold increase, read-out: AK-based Prestwick Library Screening Results: A. baumannii (increase in extracellular AK activity)) of the same compound?
**A.** 3.9

**Q.** And the fold induction at 50 µM ([2]; planktonic S. aureus, 384-well, cutoff for positive-scoring molecules 3-fold increase, read-out: AK-based Prestwick Library Screening Results: S. aureus (increase in extracellular AK activity))?
**A.** 6.9

**Q.** What about the fold induction at 50 µM (E. coli; planktonic E. coli, 384-well, cutoff for positive-scoring molecules 3-fold increase, read-out: AK-based Prestwick Library Screening Results: E. coli (increase in extracellular AK activity)) of the same compound?
**A.** 2.3

**Q.** And the fold induction at 50 µM (P. aeruginosa; planktonic P. aeruginosa, 384-well, cutoff for positive-scoring molecules 3-fold increase, read-out: AK-based Prestwick Library Screening Results: P. aeruginosa (increase in extracellular AK activity))?
**A.** 0.7

**Q.** Which results are given for `CNCCC(Oc1ccc(C(F)(F)F)cc1)c1ccccc1` (stereo not drawn) [Fluoxetine hydrochloride]?
**A.** fold induction at 50 µM (E. cloacae; planktonic E. cloacae, cutoff for positive-scoring molecules 3-fold increase, read-out: AK-based Prestwick Library Screening Results, E. cloacae (increase in extracellular AK activity)): 1.1; fold induction at 50 µM (E. faecium; planktonic E. faecium, cutoff for positive-scoring molecules 3-fold increase, read-out: AK-based Prestwick Library Screening Results, E. faecium (increase in extracellular AK activity)): 0.9; fold induction at 50 µM (K. pneumoniae; planktonic K. pneumoniae, cutoff for positive-scoring molecules 3-fold increase, read-out: AK-based Prestwick Library Screening Results, K. pneumoniae (increase in extracellular AK activity)): 0.8; fold induction at 50 µM ([1]; planktonic A. baumannii, cutoff for positive-scoring molecules 3-fold increase, read-out: AK-based Prestwick Library Screening Results, A. baumannii (increase in extracellular AK activity)): 1; fold induction at 50 µM ([2]; planktonic S. aureus, cutoff for positive-scoring molecules 3-fold increase, read-out: AK-based Prestwick Library Screening Results, S. aureus (increase in extracellular AK activity)): 1.1; fold induction at 50 µM (E. coli; planktonic E. coli, cutoff for positive-scoring molecules 3-fold increase, read-out: AK-based Prestwick Library Screening Results, E. coli (increase in extracellular AK activity)): 1; fold induction at 50 µM (P. aeruginosa; planktonic P. aeruginosa, cutoff for positive-scoring molecules 3-fold increase, read-out: AK-based Prestwick Library Screening Results, P. aeruginosa (increase in extracellular AK activity)): 0.9

**Q.** With `CC(=O)Nc1c(I)c(C(=O)N[C@H]2C(O)O[C@H](CO)[C@@H](O)[C@@H]2O)c(I)c(N(C)C(C)=O)c1I` (stereo partly drawn) [Metrizamide] as the compound, how does the fold induction at 50 µM (E. cloacae; [10]) read?
**A.** 1.3

**Q.** And the fold induction at 50 µM (E. faecium; [11])?
**A.** 1

**Q.** What about the fold induction at 50 µM (K. pneumoniae; [12]) of the same compound?
**A.** 1

**Q.** What about the fold induction at 50 µM [1, 13] of the same compound?
**A.** 1.3

**Q.** What about the fold induction at 50 µM [2, 14] of the same compound?
**A.** 1.2

**Q.** And the fold induction at 50 µM (E. coli; [15])?
**A.** 1.2

**Q.** And the fold induction at 50 µM (P. aeruginosa; [16])?
**A.** 1.2

**Q.** What does the source list for `CN(C)CCCN1c2ccccc2CCc2ccc(Cl)cc21` [Clomipramine hydrochloride]?
**A.** fold induction at 50 µM (E. cloacae; [3]): 1; fold induction at 50 µM (E. faecium; [4]): 1.1; fold induction at 50 µM (K. pneumoniae; [5]): 0.7; fold induction at 50 µM [1, 6]: 1; fold induction at 50 µM [2, 7]: 0.8; fold induction at 50 µM (E. coli; [8]): 1.1; fold induction at 50 µM (P. aeruginosa; [9]): 0.9

**Q.** `O=P1(NCCCl)OCCCN1CCCl` (stereo not drawn) [Ifosfamide] was tested. Which fold induction at 50 µM (E. cloacae; planktonic, cutoff for positive-scoring molecules 3-fold increase, read-out: AK-based Prestwick Library Screening Results, E. cloacae (fold increase in extracellular AK activity)) did it give?
**A.** 1.4

**Q.** And the fold induction at 50 µM (E. faecium; planktonic, cutoff for positive-scoring molecules 3-fold increase, read-out: AK-based Prestwick Library Screening Results, E. faecium (fold increase in extracellular AK activity))?
**A.** 0.8

**Q.** And the fold induction at 50 µM (K. pneumoniae; planktonic, cutoff for positive-scoring molecules 3-fold increase, read-out: AK-based Prestwick Library Screening Results, K. pneumoniae (fold increase in extracellular AK activity))?
**A.** 0.7

**Q.** What about the fold induction at 50 µM ([1]; planktonic, cutoff for positive-scoring molecules 3-fold increase, read-out: AK-based Prestwick Library Screening Results, A. baumannii (fold increase in extracellular AK activity)) of the same compound?
**A.** 0.8

**Q.** And the fold induction at 50 µM ([2]; planktonic, cutoff for positive-scoring molecules 3-fold increase, read-out: AK-based Prestwick Library Screening Results, S. aureus (fold increase in extracellular AK activity))?
**A.** 0.8

**Q.** What about the fold induction at 50 µM (E. coli; planktonic, cutoff for positive-scoring molecules 3-fold increase, read-out: AK-based Prestwick Library Screening Results, E. coli (fold increase in extracellular AK activity)) of the same compound?
**A.** 9

**Q.** And the fold induction at 50 µM (P. aeruginosa; planktonic, cutoff for positive-scoring molecules 3-fold increase, read-out: AK-based Prestwick Library Screening Results, P. aeruginosa (fold increase in extracellular AK activity))?
**A.** 0.9

Source: patent US10004701B2, “Methods and compositions for treating infection” (UNIVERSITY OF ROCHESTER, priority 2012, dated 2018)
